Test results as given in patent publication US9416348B2, “Hepatocyte-like cells and uses thereof” (priority 2010, dated 2016).

System: iHep cells
Experiment: CYP metabolism assay, iHep cells incubated with substrate, metabolite by LC-MS/MS
Conditions: for 4′-OH-Diclotenac: mouse, 3 h
Method: To determine Alb secretion, TTFs transduced with three factors were cultured in the medium without phenol red. Culture supernatant was collected 24 h after medium change. The amount of Alb in the supernatant was determined by the mouse albumin ELISA kit (BETHYL LABORATORY) according to the manufacturer's instructions. […] The supernatants were collected for measurement of indicated productions by LC-MS/MS (AGILENT 1200 HPLC and ABI 4000 mass-spectrometer). Freshly isolated hepatocytes were used as a positive control. Total cell protein amount was used to normalize the data.
Metabolites of these chemicals were measured by liquid chromatography-tandem mass spectrometry (LC/MS/MS) according to each standard curve.

O=C(O)Cc1ccccc1Nc1c(Cl)cccc1Cl [Diclofenac, diclofenac] was tested, and the “4′-OH-Diclotenac” value (12.5 μM) was 0.0 pmol/min/mg protein, the “4′-OH-Diclotenac” value (25 μM) was 17.0 ± 8.0 pmol/min/mg protein and the “4′-OH-Diclotenac” value (50 μM) was 195.4 ± 16.0 pmol/min/mg protein. For the same compound, the “4′-OH-Diclotenac” value (100 μM) was 483.3 ± 60.1 pmol/min/mg protein.

C[C@]12CC[C@H]3[C@@H](CCC4=CC(=O)CC[C@@]43C)[C@@H]1CC[C@@H]2O [Testosterone, testosterone] was tested, and the “metabolism by iHep cells” value (iHep cells, P<0.05) was “metabolized”.
